From ChEMBL document CHEMBL6127124, “Structure-Activity Relationships and Discovery of (S)-5-(tert-Butyl)-11-(difluoromethoxy)-9-methoxy-2-oxo-1,2,5,6-tetrahydropyrido[2',1':2,3]imidazo[4,5-h]quinoline-3-carboxylic Acid (AB-161), a Novel Orally Available and Liver-Centric HBV RNA Destabilizer” (J Med Chem, 2024)
In brackets after ≈: the same amount, converted by molar mass.

Key:
[1] = Selectivity ratio of drug concentration in liver in CD-1 mouse at 10 mg/kg, po measured for 24 hrs to EC90 for antiviral activity against HBV infected in human HepG2.2.15 cells assessed as reduction in HBsAg level; assay type: ADME, organism-based; conditions: in vivo
[2] = tested on: Hepatitis B virus; experiment: Antiviral activity against HBV infected in human HepG2.2.15 cells assessed as reduction in HBsAg level incubated for 6 days with media and compound replenishment on third day by CLIA; assay type: functional, organism-based; conditions: HepG2.2.15, 144 h; for EC90: time 6 day
[3] = Drug concentration in Beagle dog plasma at 10 mg/kg, po measured for 12 hrs by LC-MS/MS analysis; assay type: ADME, organism-based, Canis lupus familiaris; conditions: read-out: Ct
[4] = Selectivity ratio of drug concentration in liver in CD-1 mouse at 10 mg/kg, po measured for 12 hrs to EC90 for antiviral activity against HBV infected in human HepG2.2.15 cells assessed as reduction in HBsAg level; assay type: ADME, organism-based; conditions: in vivo
[5] = Cytotoxicity in human HepG2.2.15 cells by Cell Titer-Glo assay; assay type: toxicity, cell-based, HepG2 2.2.15
[6] = Ratio of drug concentration in liver to plasma of Beagle dog at 10 mg/kg, po measured for 12 hrs by LC-MS/MS analysis; assay type: ADME, organism-based, Canis lupus familiaris; conditions: liver (relative to plasma)
[7] = Plasma protein binding in dog assessed as unbound fraction at 2 uM incubated for 6 hrs by equilibrium dialysis; assay type: ADME, cell-free, Canis lupus familiaris
[8] = Ratio of drug concentration in kidney to plasma of Beagle dog at 10 mg/kg, po measured for 12 hrs by LC-MS/MS analysis; assay type: ADME, organism-based, Canis lupus familiaris; conditions: kidney (relative to plasma)
[9] = tested on: Hepatitis B virus; experiment: Antiviral activity against HBV genotype D in immuno-competent C57BL/6 mouse model of chronic HBV assessed as log10 reduction in serum HBsAg production at 1 mg/kg, po qd for 14 days measured 24 hrs post-last dose by EIA relative to control; assay type: functional; conditions: time 15 day
[10] = Drug concentration in Beagle dog liver at 10 mg/kg, po measured for 12 hrs by LC-MS/MS analysis; assay type: ADME, organism-based, Canis lupus familiaris; conditions: read-out: Ct
[11] = Ratio of drug concentration in liver to plasma of CD-1 mouse at 10 mg/kg, po measured for 24 hrs by LC-MS/MS analysis; assay type: ADME, organism-based; conditions: liver and plasma
[12] = Kinetic solubility of compound in aqueous buffer at pH 7.4 at 200 uM incubated for 24 hrs by UPLC UV analysis; assay type: physicochemical; conditions: read-out: Kinetic_solubility
[13] = Ratio of drug concentration in lung to plasma of Beagle dog at 10 mg/kg, po measured for 12 hrs by LC-MS/MS analysis; assay type: ADME, organism-based, Canis lupus familiaris; conditions: lung (relative to plasma)
[14] = Metabolic stability in Sprague-Dawley rat liver microsomes assessed as clearance at 0.3 uM preincubated for 5 mins followed by NADPH addition measured upto 60 mins by LC-MS/MS analysis; assay type: ADME, Microsome; conditions: time < 65 min, read-out: CLH
[15] = Drug concentration in Beagle dog lung at 10 mg/kg, po measured for 12 hrs by LC-MS/MS analysis; assay type: ADME, organism-based, Canis lupus familiaris; conditions: read-out: Ct
[16] = AUC (0 to 24 hrs) in CD-1 mouse at 10 mg/kg, po measured for 24 hrs by LC-MS/MS analysis; assay type: ADME, organism-based; conditions: in vivo
[17] = Drug concentration in CD-1 mouse liver at 10 mg/kg, po measured for 24 hrs by LC-MS/MS analysis; assay type: ADME, organism-based; conditions: read-out: Ct
[18] = tested on: Hepatitis B virus; experiment: Antiviral activity against HBV genotype D in immuno-competent C57BL/6 mouse model of chronic HBV assessed as log10 reduction in serum HBsAg production at 10 mg/kg, po qd for 14 days measured 24 hrs post-last dose by EIA relative to control; assay type: functional; conditions: time 15 day
[19] = Kinetic solubility of compound in aqueous buffer at pH 4 at 200 uM incubated for 24 hrs by UPLC UV analysis; assay type: physicochemical; conditions: read-out: Kinetic_solubility
[20] = biological target: T1, Cytochrome P450 2B6 (Homo sapiens, UniProt P20813); experiment: Inhibition of CYP2B6 in human liver microsomes using bupropion as substrate preincubated for 30 min followed by NADPH addition measured after 12 mins by LC-MS/MS analysis; assay type: ADME, Microsome
T1 sequence (P20813 whole entry): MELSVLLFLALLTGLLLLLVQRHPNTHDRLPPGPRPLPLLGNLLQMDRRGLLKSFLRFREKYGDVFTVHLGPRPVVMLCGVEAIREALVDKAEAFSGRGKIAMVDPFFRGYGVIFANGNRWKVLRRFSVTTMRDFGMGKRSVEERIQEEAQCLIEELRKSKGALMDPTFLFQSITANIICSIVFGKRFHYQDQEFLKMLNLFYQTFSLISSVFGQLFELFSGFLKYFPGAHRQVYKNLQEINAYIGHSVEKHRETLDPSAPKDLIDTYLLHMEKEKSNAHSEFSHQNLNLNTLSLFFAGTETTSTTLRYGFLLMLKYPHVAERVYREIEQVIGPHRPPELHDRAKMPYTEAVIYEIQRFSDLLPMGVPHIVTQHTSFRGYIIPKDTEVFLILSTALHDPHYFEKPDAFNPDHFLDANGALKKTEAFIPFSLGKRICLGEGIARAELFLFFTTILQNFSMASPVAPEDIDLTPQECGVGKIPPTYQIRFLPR

[21] = tested on: Hepatitis B virus; experiment: Antiviral activity against HBV infected in human HepG2.2.15 cells assessed as reduction in HBsAg level incubated for 6 days with media and compound replenishment on third day in presence of 40 percent mouse serum by CLIA; assay type: functional, organism-based; conditions: HepG2.2.15, 144 h
[22] = Drug concentration in Beagle dog kidney at 10 mg/kg, po measured for 12 hrs by LC-MS/MS analysis; assay type: ADME, organism-based, Canis lupus familiaris; conditions: read-out: Ct
[23] = Plasma protein binding in mouse assessed as unbound fraction at 2 uM incubated for 6 hrs by equilibrium dialysis; assay type: ADME, cell-free
[24] = Permeability across apical to basal side in human Caco-2 cells at 5 uM incubated for 120 mins by LC-MS/MS analysis; assay type: ADME, cell-based; conditions: read-out: permeability
[25] = Plasma protein binding in rat assessed as unbound fraction at 2 uM incubated for 6 hrs by equilibrium dialysis; assay type: ADME, cell-free
[26] = Permeability across basal to apical side in human Caco-2 cells at 5 uM incubated for 120 mins by LC-MS/MS analysis; assay type: ADME, cell-based; conditions: read-out: permeability
[27] = Metabolic stability in cynomolgous monkey liver microsomes assessed as clearance at 0.3 uM preincubated for 5 mins followed by NADPH addition measured upto 60 mins by LC-MS/MS analysis; assay type: ADME, Macaca fascicularis, Microsome; conditions: cynomolgus monkey, read-out: CLH
[28] = Metabolic stability in human liver microsomes assessed as clearance at 0.3 uM preincubated for 5 mins followed by NADPH addition measured upto 60 mins by LC-MS/MS analysis; assay type: ADME, Microsome; conditions: time < 65 min, read-out: CLH
[29] = Ratio of total drug concentration in liver to plasma in CD-1 mouse at 10 mg/kg, po measured for 24 hrs by LC-MS/MS analysis; assay type: ADME, organism-based; conditions: CD-1, mouse, liver and plasma
[30] = Plasma protein binding in monkey assessed as unbound fraction at 2 uM incubated for 6 hrs by equilibrium dialysis; assay type: ADME, cell-free, Macaca mulatta; conditions: rhesus monkey
[31] = Plasma protein binding in human assessed as unbound fraction at 2 uM incubated for 6 hrs by equilibrium dialysis; assay type: ADME, cell-free
[32] = Drug concentration in CD-1 mouse plasma at 10 mg/kg, po measured for 24 hrs by LC-MS/MS analysis; assay type: ADME, organism-based; conditions: read-out: Ct

Row | Structure (SMILES) | Ratio [1] | EC50 [2] | EC90 [2] | concentration at 12 h [3] | Ratio [4] | CC50 [5] | Kp at 12 h [6] | fraction unbound at 6 h, 2 µM [7] | Kp at 12 h [8] | log(activity) [9] | concentration at 12 h [10] | Kp at 24 h [11] | solubility kinetic at 24 h, 200 µM [12] | Kp at 12 h [13] | microsomal CLint at 0.3 µM [14] | concentration at 12 h [15] | AUC(0-t) at 24 h [16] | concentration at 24 h [17] | log(activity) [18] | solubility kinetic at 24 h, 200 µM [19] | further results
1 | COCCCOc1cc2c(nc1OC)-c1cc(=O)c(C(=O)O)cn1[C@H](C(C)C)C2 | 4 | 0.0013 µM | 0.013 µM | 48.3 ng/g | 191 | > 50 µM | 2.9 | 0.38 | 2.7 | 0.81 | 140 ng/g | 3 | 175 µM (≈ 70.4 µg/mL) | 1.3 | 3 µL/min/mg | 63 ng/g | 4.77 µg·h/mL | 87 ng/g | 1 | 190 µM (≈ 76.5 µg/mL) | IC50 [20]: 21 µM; EC50 [21]: 0.0078 µM; concentration at 12 h [22]: 129 ng/g; fraction unbound at 6 h, 2 µM [23]: 0.66; Papp A→B at 2 h, 5 µM [24]: 115 nm/s; fraction unbound at 6 h, 2 µM [25]: 0.46; Papp B→A at 2 h, 5 µM [26]: 438 nm/s; microsomal CLint at 0.3 µM [27]: 5 µL/min/mg; microsomal CLint at 0.3 µM [28]: 2 µL/min/mg; Kp at 24 h [29]: 3; fraction unbound at 6 h, 2 µM [30]: 0.58; fraction unbound at 6 h, 2 µM [31]: 0.55; concentration at 24 h [32]: 29 ng/g
2 | COc1cc(OC(F)F)c2nc3c(n2c1)C[C@@H](C(C)(C)C)c1cc(C(=O)O)c(=O)[nH]c1-3 | 662 | 0.0022 µM | 0.028 µM | 272 ng/g | 1675 | > 50 µM | 11 | 0.05 | 4.3 | 0.34 | 2910 ng/g | 184 | 183 µM (≈ 79.3 µg/mL) | 0.5 | 3 µL/min/mg | 135 ng/g | 18.9 µg·h/mL | 10400 ng/g | 0.71 | 43 µM (≈ 18.6 µg/mL) | IC50 [20]: > 25 µM; EC50 [21]: 0.04 µM; concentration at 12 h [22]: 1180 ng/g; fraction unbound at 6 h, 2 µM [23]: 0.02; Papp A→B at 2 h, 5 µM [24]: 44 nm/s; fraction unbound at 6 h, 2 µM [25]: 0.06; Papp B→A at 2 h, 5 µM [26]: 545 nm/s; microsomal CLint at 0.3 µM [27]: 2 µL/min/mg; microsomal CLint at 0.3 µM [28]: 4 µL/min/mg; Kp at 24 h [29]: 184; fraction unbound at 6 h, 2 µM [30]: 0.02; fraction unbound at 6 h, 2 µM [31]: 0.05; concentration at 24 h [32]: 56.8 ng/g
3 | CC(C)(C)[C@@H]1Cc2c(nc3c(C(F)(F)F)cc(C4CC4)cn23)-c2[nH]c(=O)c(C(=O)O)cc21 | 2089 | 0.0006 µM | 0.0061 µM | 110 ng/g | 12480 | 48 µM | 2.5 | 0.02 | 3.2 | 0.47 | 275 ng/g | 67 | 154 µM (≈ 68.6 µg/mL) | 0.7 | 5 µL/min/mg | 73 ng/g | 20.5 µg·h/mL | 5740 ng/g | 1.07 | 39 µM (≈ 17.4 µg/mL) | IC50 [20]: > 25 µM; EC50 [21]: 0.0068 µM; concentration at 12 h [22]: 347 ng/g; fraction unbound at 6 h, 2 µM [23]: 0.01; Papp A→B at 2 h, 5 µM [24]: 266 nm/s; fraction unbound at 6 h, 2 µM [25]: 0.02; Papp B→A at 2 h, 5 µM [26]: 656 nm/s; microsomal CLint at 0.3 µM [27]: 4 µL/min/mg; microsomal CLint at 0.3 µM [28]: 1 µL/min/mg; Kp at 24 h [29]: 67; fraction unbound at 6 h, 2 µM [30]: 0.02; fraction unbound at 6 h, 2 µM [31]: 0.05; concentration at 24 h [32]: 85.6 ng/g
